The Deep4Chem optical property database
One block for each molecule: values may come before it.

Test: solvent given as SMILES

Structure (SMILES): c1ccc(Nc2nc(Nc3ccccc3)nc(Nc3ccc4c5cccc6cccc(c7cccc3c74)c65)n2)cc1
emission maximum (in C1COCCO1): 487 nm | emission maximum (in CC#N): 492 nm | emission maximum (in CCCCOCCCC): 486 nm | emission maximum (in CCOC(C)=O): 488 nm

Structure (SMILES): Brc1ccc(-c2nc(-c3ccc(C#Cc4ccc(-n5c6ccccc6c6ccccc65)cc4)cc3)nc(-c3ccc(C#Cc4ccc(-n5c6ccccc6c6ccccc65)cc4)cc3)n2)cc1
emission maximum (in C1CCOC1): 465 nm | emission maximum (in CC#N): 563 nm | emission maximum (in CCCCCC): 411 nm | emission maximum (in Cc1ccccc1): 432 nm | emission maximum (in ClCCl): 498 nm

Structure (SMILES): c1ccc(-c2oc(-c3ccccc3)c3ccccc23)cc1
emission maximum (in C1CCCCC1): 448 nm | emission maximum (in C1CCOC1): 451 nm | emission maximum (in CC#N): 452 nm | emission maximum (in CCO): 451 nm | emission maximum (in CN(C)C=O): 458 nm | emission maximum (in CS(C)=O): 460 nm | emission maximum (in Cc1ccccc1): 454 nm

Structure (SMILES): c1ccc(-c2nc(-c3ccc(N4c5ccccc5C(c5ccccc5)(c5ccccc5)c5ccccc54)cc3)cc(-c3ccc(N4c5ccccc5C(c5ccccc5)(c5ccccc5)c5ccccc54)cc3)n2)cc1
emission maximum (in Cc1ccccc1): 456 nm | emission maximum (in O=P(c1ccccc1)(c1ccccc1)c1ccc2oc3ccc(P(=O)(c4ccccc4)c4ccccc4)cc3c2c1): 462 nm

Structure (SMILES): c1ccc(C(=C(c2ccccc2)c2ccc(-c3ccc(-c4nc5c(-c6ccc(-c7ccc(C(=C(c8ccccc8)c8ccccc8)c8ccccc8)cc7)cc6)sc(-c6ccc(-c7ccc(C(=C(c8ccccc8)c8ccccc8)c8ccccc8)cc7)cc6)c5nc4-c4ccc(-c5ccc(C(=C(c6ccccc6)c6ccccc6)c6ccccc6)cc5)cc4)cc3)cc2)c2ccccc2)cc1
emission maximum (in Cc1ccccc1): 637 nm | emission maximum (in ClCCl): 647 nm

Structure (SMILES): Cc1cc(N2c3ccccc3C(C)(C)c3ccccc32)ccc1-c1ncnc(-c2ccc(N3c4ccccc4C(C)(C)c4ccccc43)cc2C)c1C
emission maximum (in Cc1ccccc1): 454 nm | emission maximum (in O=P(c1ccccc1)(c1ccccc1)c1ccccc1Oc1ccccc1P(=O)(c1ccccc1)c1ccccc1): 454 nm

Structure (SMILES): CCCCC(CC)Cn1c2cc(C#N)c(-c3ccc(N(c4ccccc4)c4ccccc4)cc3)cc2c2cc(-c3ccc(N(c4ccccc4)c4ccccc4)cc3)c(C#N)cc21 (configuration not stated)
emission maximum (in C1CCCCC1): 450 nm | emission maximum (in C1CCOC1): 494 nm | emission maximum (in CC#N): 542 nm | emission maximum (in CCCCOCCCC): 464 nm | emission maximum (in CCN(CC)CC): 464.65 nm | emission maximum (in CCOC(C)=O): 494 nm | emission maximum (in CCOCC): 472 nm | emission maximum (in CN(C)C=O): 542 nm | emission maximum (in Cc1ccccc1): 473 nm | emission maximum (in ClC=C(Cl)Cl): 478 nm | emission maximum (in ClCCl): 513 nm

Structure (SMILES): CC1(C)C(/C=C/C2=C(Cl)C(=C/C=C3/N(CCCCCC(=O)O)c4ccccc4C3(C)C)/CCC2)=[N+](CCCCCC(=O)O)c2ccccc21
emission maximum (in CO): 808 nm

Structure (SMILES): F[B-]1(F)Oc2ccccc2-c2n(-c3ccc(C(F)(F)F)cc3)c(-c3ccccc3)c(-c3ccccc3)[n+]21
emission maximum (in C1CCOC1): 390 nm

Structure (SMILES): CC(C)(C)c1ccc2c(c1)c1cc(C(C)(C)C)ccc1n2-c1ccc(S(=O)(=O)c2ccc(-n3c4ccc(C(C)(C)C)cc4c4cc(C(C)(C)C)ccc43)cn2)nc1
emission maximum (in Cc1ccccc1): 444.37 nm | emission maximum (in O=P(c1ccccc1)(c1ccccc1)c1ccc2sc3cccc(P(=O)(c4ccccc4)c4ccccc4)c3c2c1): 444 nm

Structure (SMILES): Cc1ccc(N2C(c3ccccc3N(C)C)=NC(c3ccccc3)C2c2ccccc2)cc1 (configuration not stated)
emission maximum (in Cc1ccccc1): 422 nm

Structure (SMILES): COc1ccc(-c2cc(-c3ccc(C)cc3)nc3c(C#N)c(N4CCCC4)nc(N)c23)cc1
emission maximum (in CC#N): 521 nm | emission maximum (in CC(C)=O): 517 nm | emission maximum (in CC(C)O): 511 nm | emission maximum (in CO): 519 nm | emission maximum (in ClC(Cl)Cl): 504 nm | emission maximum (in ClCCl): 509 nm | emission maximum (in c1ccccc1): 513 nm

Structure (SMILES): c1cc2c3ccc[n+]4cccc(c5ccc[n+](c1)c25)c34
emission maximum (in CC#N): 442 nm | emission maximum (in CS(C)=O): 443 nm | emission maximum (in C[N+](=O)[O-]): 441 nm | emission maximum (in O): 441 nm

Structure (SMILES): CN(C)c1ccc(/C=C/c2ccc3ccccc3[n+]2C)cc1
emission maximum (in CC#N): 618 nm | emission maximum (in ClCCl): 645 nm | emission maximum (in O): 622 nm

Structure (SMILES): c1ccc2c(c1)Sc1ccccc1N2c1ccc2c(c1)C1(CC1)c1cc(N3c4ccccc4Sc4ccccc43)ccc1-2
emission maximum (in Cc1ccccc1): 494 nm

Structure (SMILES): N#C[Se]CCCCCOc1ccc2ccc(=O)oc2c1
emission maximum (in C1CCCCC1): 378 nm | emission maximum (in C1CCOC1): 391 nm | emission maximum (in C1COCCO1): 386 nm | emission maximum (in CC#N): 387 nm | emission maximum (in CCCCCCC): 391 nm | emission maximum (in CCO): 386 nm | emission maximum (in CN(C)C=O): 396 nm | emission maximum (in CO): 391 nm | emission maximum (in O): 397 nm | emission maximum (in OCCO): 392 nm

Structure (SMILES): Nc1ccc(/C=C2\OC(=O)c3ccccc32)cc1
emission maximum (in CC#N): 547.95 nm | emission maximum (in CC(C)=O): 390.02 nm | emission maximum (in CC(C)CO): 547.65 nm | emission maximum (in CC(C)O): 548.25 nm | emission maximum (in CCCO): 549.75 nm | emission maximum (in CCO): 552.49 nm | emission maximum (in CCOC(C)=O): 503.52 nm | emission maximum (in CCOCC): 485.91 nm | emission maximum (in CO): 552.49 nm

Structure (SMILES): O=S(=O)([O-])c1ccc([O-])c2ccccc12
emission maximum (in O): 435 nm

Now from value to molecule:

emission maximum (in ClC(Cl)Cl): 668 nm
Structure (SMILES): F[B-]1(F)n2c(cc3ccc4ccccc4c32)C(c2ccc(I)cc2)=C2C=C3CCc4ccccc4C3=[N+]21

emission maximum (in ClCCl): 538 nm
Structure (SMILES): CCc1cccc(CC)c1-c1c2ccccc2c(C#Cc2ccccc2)c2cc3ccccc3cc12

emission maximum (in CC#N): 496 nm
Structure (SMILES): Oc1ccc2ccccc2c1/C=N/c1ccccc1/N=C/c1c(O)ccc2ccccc12

emission maximum (in C1CCOC1): 465 nm | emission maximum (in CC#N): 478 nm | emission maximum (in CCO): 492 nm | emission maximum (in CN(C)C=O): 478 nm | emission maximum (in CO): 499 nm | emission maximum (in CS(C)=O): 491 nm
Structure (SMILES): CCOC(=O)c1sc(SC)c2c(=O)[nH]nnc12

emission maximum (in CCO): 415 nm
Structure (SMILES): COC(=O)C(NC(=O)CCNc1cccc2ccccc12)C(C)C (configuration not stated)

emission maximum (in ClCCl): 666 nm
Structure (SMILES): CCCCCCCCOc1ccc(C#Cc2c3cc4ccccc4cc3c(C#C[Si](C(C)C)(C(C)C)C(C)C)c3cc4ccccc4cc23)cc1

emission maximum (in ClCCl): 606 nm
Structure (SMILES): CCCCCCCCCCCCCCCCCCOC(=O)/C=C/C1=CC2=C(c3c(C)cc(C)cc3C)c3cc(/C=C/C(=O)OCCCCCCCCCCCCCCCCCC)cn3[B-](F)(F)[N+]2=C1

emission maximum (in C1CCOC1): 515 nm
Structure (SMILES): N#Cc1c(N2CCCCC2)cc(-c2ccc(-c3ccccc3)s2)c2c1CCc1ccccc1-2

emission maximum (in CC#N): 683 nm | emission maximum (in CO): 679 nm | emission maximum (in ClCCl): 675 nm | emission maximum (in O): 684 nm
Structure (SMILES): O=C(O)CC[N+]1=c2cc3c(cc2CCC1)=Cc1c(c2cc4c5c(c2oc1=O)CCCN5CCC4)O3

emission maximum (in ClC(Cl)Cl): 469.48 nm
Structure (SMILES): CCCCCCn1c2cc(/C=C(\C#N)c3ccccc3)ccc2c2ccc(/C=C(\C#N)c3ccccc3)cc21

emission maximum (in CCO): 446 nm
Structure (SMILES): CC(C)(C)OC(=O)NCC(=O)OCc1ccc2c3cccc4cccc(c5cccc1c52)c43

emission maximum (in ClCCl): 467 nm
Structure (SMILES): C[Si](C)(C)C#Cc1cc(C#C[Si](C)(C)C)c2ccc3c(C(=O)c4ccccc4)cc(C#C[Si](C)(C)C)c4ccc1c2c43

emission maximum (in CS(C)=O): 386.5 nm
Structure (SMILES): Cc1ccc2nc(-c3cc(-c4nc5ccc(C)cc5[nH]4)cc(-c4nc5ccc(C)cc5[nH]4)c3)[nH]c2c1

emission maximum (in CC1CCCCC1): 364 nm | emission maximum (in CC#N): 390 nm | emission maximum (in CO): 405 nm
Structure (SMILES): COC(=O)C(NC(=O)OC(C)(C)C)c1ccc2oc(-c3cc(OC)ccc3OC)nc2c1 (configuration not stated)

emission maximum (in O): 570 nm
Structure (SMILES): Cc1cc(=O)oc2cc(/[NH+]=C/C=C3/C=C(C(=O)O)NC(C(=O)O)C3)ccc12 (configuration not stated)

emission maximum (in ClC(Cl)Cl): 448 nm
Structure (SMILES): c1ccc2c(c1)oc1nc3oc4ccc(-n5c6ccccc6c6ccccc65)cc4c3cc12

emission maximum (in C1CCOC1): 492 nm
Structure (SMILES): c1cc2ccc1-c1ccc(cc1)-c1ccc([se]1)-c1ccc(cc1)-c1ccc(cc1)-c1ccc([se]1)-c1ccc(cc1)-c1ccc(cc1)-c1ccc([se]1)-c1ccc(cc1)-c1ccc(cc1)-c1ccc-2[se]1

emission maximum (in CC#N): 468 nm | emission maximum (in ClCCl): 469 nm
Structure (SMILES): COC(=O)c1cc(=O)n(C)c2cc(-c3ccccc3OC)sc12
